{"source": "patent US11814352B2", "about": "“Salts formed by 2-(1-acyloxy-n-pentyl) benzoic acid and basic amino acid or aminoguanidine, and preparation method and application thereof” (JIANGSU KANION PHARMACEUTICAL CO., LTD., priority 2018, dated 2023)", "key": {"[1]": {"system": "arteriovenous bypass thrombosis in rats", "assay": "Effect on arteriovenous bypass thrombosis in rats", "type": "in vivo, SD rats", "settings": "10 mg/kg/day tail vein 7 days; for inhibition at 10 mg/kg/day: Rattus norvegicus, 168 h, vs model group", "outline": "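Male SD rats (250-280 g) dosed 10 mg/kg/day i.v. (tail vein, saline with 1% DMSO) for 7 days, n=8; vehicle controls. Two hours after the last dose, under pentobarbital, a carotid–jugular shunt holding a weighed suture ran for 15 min; thrombus wet and dry (24 h air-dried) weights taken.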"}, "[2]": {"assay": "Acute toxicity test, tail vein injection in mice", "settings": "female, ICR, mouse, in vivo, iv, LD50 value, Bliss method"}, "ICR mice": {"system": "ICR mice", "assay": "Acute toxicity test, tail vein injection in mice", "settings": "for Number of deaths (quantity): 10 animals, 14 days"}}, "note": "Read-outs that look alike come from different tables or passages of the source. Marks after values point to notes of the source that are not given here."}
{"smiles": "CCCC[C@H](OC(C)=O)c1ccccc1C(=O)O", "note": "[I1s, L-Arginine (S)-2-(1-Acetoxy-n-Pentyl) Benzoate]", "values": [{"measurement": "Dry weight of thrombus", "setting": "[1]; 2 h after last dose", "value": "5.52 ± 0.44"}, {"measurement": "Wet weight of thrombus", "setting": "[1]; 2 h after last dose", "value": "20.23 ± 1.25**^"}, {"measurement": "inhibition at 10 mg/kg/day", "setting": "[1]; read-out: Inhibition rate (dry weight of thrombus)", "value": 45, "unit": "%"}, {"measurement": "inhibition at 10 mg/kg/day", "setting": "[1]; read-out: Inhibition rate (wet weight of thrombus)", "value": 44.1, "unit": "%"}, {"measurement": "LD50 at 14 days", "setting": "[2]", "value": 1120, "unit": "mg/kg"}, {"measurement": "LD50 at 14 days", "setting": "[2]; interval in parentheses", "value": "975 to 1290", "unit": "mg/kg"}, {"measurement": "Symptoms of poisoning", "setting": "ICR mice; higher dose in the tail vein", "value": "convulsions and decreased activity"}, {"measurement": "Body weight D 1", "setting": "ICR mice; i.v. 700 mg/kg", "value": "19.4 ± 0.6", "unit": "g"}, {"measurement": "Body weight D 7", "setting": "ICR mice; i.v. 700 mg/kg", "value": "21.0 ± 0.6", "unit": "g"}, {"measurement": "Body weight D 14", "setting": "ICR mice; i.v. 700 mg/kg", "value": "22.3 ± 0.7", "unit": "g"}, {"measurement": "Number of deaths (quantity)", "setting": "ICR mice; i.v. 700 mg/kg", "value": 1}, {"measurement": "Body weight D 1", "setting": "ICR mice; i.v. 900 mg/kg", "value": "19.8 ± 0.5", "unit": "g"}, {"measurement": "Body weight D 7", "setting": "ICR mice; i.v. 900 mg/kg", "value": "20.9 ± 0.6", "unit": "g"}, {"measurement": "Body weight D 14", "setting": "ICR mice; i.v. 900 mg/kg", "value": "22.2 ± 0.6", "unit": "g"}, {"measurement": "Number of deaths (quantity)", "setting": "ICR mice; i.v. 900 mg/kg", "value": 2}, {"measurement": "Body weight D 1", "setting": "ICR mice; i.v. 1100 mg/kg", "value": "19.4 ± 0.6", "unit": "g"}, {"measurement": "Body weight D 7", "setting": "ICR mice; i.v. 1100 mg/kg", "value": "21.0 ± 0.5", "unit": "g"}, {"measurement": "Body weight D 14", "setting": "ICR mice; i.v. 1100 mg/kg", "value": "22.0 ± 0.5", "unit": "g"}, {"measurement": "Number of deaths (quantity)", "setting": "ICR mice; i.v. 1100 mg/kg", "value": 4}, {"measurement": "Body weight D 1", "setting": "ICR mice; i.v. 1300 mg/kg", "value": "19.5 ± 0.4", "unit": "g"}, {"measurement": "Body weight D 7", "setting": "ICR mice; i.v. 1300 mg/kg", "value": "20.8 ± 0.6", "unit": "g"}, {"measurement": "Body weight D 14", "setting": "ICR mice; i.v. 1300 mg/kg", "value": "22.1 ± 0.6", "unit": "g"}, {"measurement": "Number of deaths (quantity)", "setting": "ICR mice; i.v. 1300 mg/kg", "value": 6}, {"measurement": "Body weight D 1", "setting": "ICR mice; i.v. 1500 mg/kg", "value": "19.9 ± 0.2", "unit": "g"}, {"measurement": "Body weight D 7", "setting": "ICR mice; i.v. 1500 mg/kg", "value": 21.0, "unit": "g"}, {"measurement": "Body weight D 14", "setting": "ICR mice; i.v. 1500 mg/kg", "value": 23.6, "unit": "g"}, {"measurement": "Number of deaths (quantity)", "setting": "ICR mice; i.v. 1500 mg/kg", "value": 9}]}
